Biological target: T1, mAChR M4 (Homo sapiens, UniProt P08173)
T1 construct: expressed in transfected cells; host or cells: CHO-K1 cells stably transfected with M4 cDNA and chimeric G-protein Gqi5
T1 sequence (P08173 1-479): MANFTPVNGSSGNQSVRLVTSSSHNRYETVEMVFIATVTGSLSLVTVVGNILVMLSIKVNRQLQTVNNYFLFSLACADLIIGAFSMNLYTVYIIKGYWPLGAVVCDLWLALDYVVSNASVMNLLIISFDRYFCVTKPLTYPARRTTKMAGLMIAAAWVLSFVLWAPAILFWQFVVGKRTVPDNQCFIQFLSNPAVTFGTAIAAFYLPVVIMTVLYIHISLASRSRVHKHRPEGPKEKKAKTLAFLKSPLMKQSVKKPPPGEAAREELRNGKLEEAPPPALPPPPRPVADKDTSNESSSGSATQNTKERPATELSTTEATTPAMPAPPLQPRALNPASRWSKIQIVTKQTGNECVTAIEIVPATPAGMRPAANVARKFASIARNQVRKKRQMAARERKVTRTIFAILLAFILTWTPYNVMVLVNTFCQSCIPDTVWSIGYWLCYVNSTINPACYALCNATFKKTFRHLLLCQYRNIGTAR
Experiment: mAChR M4 cell-based functional assay (calcium mobilization, potentiation of EC20 acetylcholine response)
Settings: for Emax at 30 µM / Emax (%)*: % ACh maximum at 30 μM; for EC50: mAChR M4 cell-based functional assay, >10,000 estimated for low potency compounds without plateau, read-out: EC50

Structure (SMILES) | Emax at 30 µM [%] | EC50 [nM] | Emax (%)* [%]
Cc1nnc2sc(C(=O)NC3CN(C(=O)Nc4ccc(C(C)C)cc4)C3)c(N)c2c1C [Example B349] | 71 | 26 | –
Cc1nnc2sc(C(=O)NC3CN(C(=O)Oc4ccc(C(C)C)cc4)C3)c(N)c2c1C [Example B348] | 72 | 54 | –
CCS(=O)(=O)c1ccc(CNC(=O)c2sc3nnc(C)c(C)c3c2N)cc1 [Example B49] | 64 | 48 | –
Cc1nnc2sc(C(=O)N3CCC(NC(=O)C4CC4)C3)c(N)c2c1C (stereo not drawn) [Example B236] | 66 | 5000 | –
COc1ncc(CNC(=O)c2sc3nnc(C)c(C)c3c2N)cc1F [Example B439] | 78 | 25 | –
Cc1nnc2sc(C(=O)N3CCC(NS(=O)(=O)c4ccc(F)cc4)C3)c(N)c2c1C (stereo not drawn) [Example B223] | 61 | 2400 | –
COc1ccc(C2CC2NC(=O)c2sc3nnc4c(c3c2N)CCCC4)cc1 (stereo not drawn) [Example B55] | 48 | 47 | –
Cc1nnc2sc(C(=O)N3CCC(c4ccncc4)C3)c(N)c2c1C (stereo not drawn) [Example B156] | 53 | 2200 | –
Cc1nnc2sc(C(=O)NCc3ccc(S(=O)(=O)c4ccccc4)cc3)c(N)c2c1C [Example B505] | 63 | 110 | –
Cc1nnc2sc(C(=O)N3CC(F)(c4ccc(-c5cccnc5)cc4)C3)c(N)c2c1C [Example B320] | 42 | 130 | –
Cc1nnc2sc(C(=O)N3CCC(NC(=O)c4ccncc4)C3)c(N)c2c1C (stereo not drawn) [Example B204] | 64 | 5000 | –
COc1cccc(C2(OC)CN(C(=O)c3sc4nnc(C)c(C)c4c3N)C2)c1 [Example B310] | 39 | 1900 | –
Cc1nnc2sc(C(=O)NC3CN(C(=O)C(C)(C)C)C3)c(N)c2c1C [Example B121] | 92 | 840 | –
Cc1ccc(C(=O)NC2CCN(C(=O)c3sc4nnc(C)c(C)c4c3N)C2)cc1 (stereo not drawn) [Example B225] | 62 | 1400 | –
Cc1nnc2sc(C(=O)NC3CN(C(=O)Oc4cccc(Cl)c4)C3)c(N)c2c1C [Example B359] | 55 | 16 | –
Cc1nnc2sc(C(=O)NCc3ccncc3)c(N)c2c1C [Example B14] | 100 | 320 | –
Cc1nnc2sc(C(=O)NCc3ccc(-c4ccc5occc5c4)cc3)c(N)c2c1C [Example B463] | 70 | 150 | –
Cc1nnc2sc(C(=O)NCCNC(=O)Oc3ccccc3)c(N)c2c1C [Example B354] | – | 2000 | 73
Cc1nnc2sc(C(=O)Nc3ccccn3)c(N)c2c1C [Example B36] | 29 | 1700 | –
Cc1nnc2sc(C(=O)NC3CN(C(=O)c4ccc(F)cc4)C3)c(N)c2c1C [Example B155] | 91 | 93 | –
Cc1nnc2sc(C(=O)NCCNS(=O)(=O)c3ccccc3)c(N)c2c1C [Example B360] | 52 | 2500 | –

Structure (SMILES) | Emax at 30 µM [%] | EC50 [nM] | Emax (%)* [%]
Cc1nnc2sc(C(=O)NC3CN(C(=O)c4ccc(F)cc4F)C3)c(N)c2c1C [Example B391] | 88 | 300 | –
COc1ccc(C(=O)N2CC(NC(=O)c3sc4nnc(C)c(C)c4c3N)C2)c(OC)c1 [Example B161] | 61 | 200 | –
Cc1nnc2sc(C(=O)NC3CN(c4ccccc4)C3)c(N)c2c1C [Example B481] | 62 | 12 | –
Cc1nnc2sc(C(=O)NC3CCC3)c(N)c2c1C [Example B84] | 61 | 1000 | –
Nc1c(C(=O)NCc2ccccc2)sc2nnc3c(c12)CCCC3 [Example B51] | 51 | 130 | –
Cc1nnc2sc(C(=O)NC3CN(C(=O)NCCCN4CCOCC4)C3)c(N)c2c1C [Example B337] | 55 | 600 | –
Cc1nnc2sc(C(=O)NC3CCN(C(=O)OC(C)C)C3)c(N)c2c1C (stereo not drawn) [Example B222] | 50 | > 10000 | –
COc1ccc(SC2CN(C(=O)c3sc4nnc(C)c(C)c4c3N)C2)cc1 [Example B416] | 61 | 110 | –
Cc1ccc(S(=O)(=O)N2CC(NC(=O)c3sc4nnc(C)c(C)c4c3N)C2)cc1F [Example B145] | 82 | 130 | –
Cc1nnc2sc(C(=O)NCc3ccc(-c4ccc5[nH]ncc5c4C)cc3)c(N)c2c1C [Example B473] | 61 | 89 | –
Cc1nnc2sc(C(=O)NCc3ccc(F)cc3)c(N)c2c1C [Example B435] | 68 | 180 | –
Cc1nnc2sc(C(=O)NCc3cccc(F)c3)c(N)c2c1C [Example B7] | 97 | 140 | –
Cc1nnc2sc(C(=O)N[C@H]3C[C@@H]3c3ccc(S(C)(=O)=O)cc3)c(N)c2c1C (single isomer, unassigned) [Example B110] | 62 | 18 | –
COc1cccc(C(=O)N2CC(NC(=O)c3sc4nnc(C)c(C)c4c3N)C2)c1 [Example B127] | 82 | 85 | –
Cc1nnc2sc(C(=O)NCc3cccnc3)c(N)c2c1C [Example B316] | 73 | 310 | –
Cc1nnc2sc(C(=O)N3CCC(NC(=O)c4ccc(F)c(F)c4)C3)c(N)c2c1C (stereo not drawn) [Example B217] | 53 | 1100 | –
Nc1c(C(=O)NCc2ccc3c(c2)OCO3)sc2nnccc12 [Example B22] | 63 | 2800 | –
Cc1nnc2sc(C(=O)NC3CN(c4nc5ccccc5o4)C3)c(N)c2c1C [Example B425] | 74 | 28 | –
COC1(C)CN(C(=O)c2sc3nnc(C)c(C)c3c2N)C1 [Example B292] | 62 | > 10000 | –
COc1ccc(CNC(=O)c2sc3nnc(C)c(C)c3c2N)c(F)c1 [Example B475] | 61 | 24 | –
Nc1c(C(=O)NCc2ccc(S(=O)(=O)C(F)(F)F)cc2)sc2nnc3c(c12)CCCC3 [Example B189] | 42 | 420 | –

Structure (SMILES) | Emax at 30 µM [%] | EC50 [nM] | Emax (%)* [%]
CCCCOc1ccc(C(=O)N2CCC(NC(=O)c3sc4nnc(C)c(C)c4c3N)C2)cc1 (stereo not drawn) [Example B212] | 76 | 870 | –
Cc1nnc2sc(C(=O)NC3CN(C(=O)Nc4ccccc4)C3)c(N)c2c1C [Example B362] | 64 | 18 | –
CCCCC1(F)CN(C(=O)c2sc3nnc(C)c(C)c3c2N)C1 [Example B307] | 55 | 180 | –
Cc1ccccc1N1CCC(NC(=O)c2sc3nnc(C)c(C)c3c2N)C1 (stereo not drawn) [Example B269] | 68 | 110 | –
Cc1nnc2sc(C(=O)N3CC(NCc4ccco4)C3)c(N)c2c1C [Example B64] | 41 | > 10000 | –
Cc1nnc2sc(C(=O)NC3CN(C(=O)Nc4ccc(OC(F)F)cc4)C3)c(N)c2c1C [Example B363] | 74 | 27 | –
Cc1nnc2sc(C(=O)N3CC(F)(C4CCCCC4)C3)c(N)c2c1C [Example B296] | 67 | 280 | –
CC(=O)N1CC(NC(=O)c2sc3nnc(C)c(C)c3c2N)C1 [Example B134] | 67 | 520 | –
Cc1nnc2sc(C(=O)NC3(c4ccc(F)cc4)CC3)c(N)c2c1C [Example B390] | 46 | > 10000 | –
Cc1nnc2sc(C(=O)N3CC(F)(c4cccc(-c5cnn(C)c5)c4)C3)c(N)c2c1C [Example B325] | 62 | 590 | –
Cc1nnc2sc(C(=O)NCc3ccc(C(C)(O)C(F)(F)F)cc3)c(N)c2c1C (single isomer, unassigned) [Example B187] | – | 20 | 84
COc1ccc(OC(=O)N2CC(NC(=O)c3sc4nnc(C)c(C)c4c3N)C2)cc1 [Example B334] | 69 | 13 | –
Cc1nnc2sc(C(=O)N3CC(F)(c4cccc(-c5cccnc5)c4)C3)c(N)c2c1C [Example B321] | 48 | 290 | –
CCCOC(=O)NC(CCl)CNC(=O)c1sc2nnc(C)c(C)c2c1N (stereo not drawn) [Example B165] | 32 | > 10000 | –
Cc1nnc2sc(C(=O)NC3CN(S(=O)(=O)c4ccc(C(F)(F)F)cc4)C3)c(N)c2c1C [Example B147] | 95 | 87 | –
Cc1nnc2sc(C(=O)NC3CCN(c4ccc(Cl)cc4)C3)c(N)c2c1C (stereo not drawn) [Example B274] | 69 | 41 | –
CCOC(=O)N1CC2CN(C(=O)c3sc4nnc(C)c(C)c4c3N)CC2C1 (stereo not drawn) [Example B285] | 73 | 2500 | –
Cc1nnc2sc(C(=O)NCc3ccc(-c4ccncc4)cc3)c(N)c2c1C [Example B457] | 75 | 19 | –
Cc1nnc2sc(C(=O)N3CC(F)(c4ccc(S(C)(=O)=O)cc4)C3)c(N)c2c1C [Example B383] | 51 | 510 | –
Cc1nnc2sc(C(=O)NC3CCN(C(=O)Oc4ccccc4)C3)c(N)c2c1C (stereo not drawn) [Example B203] | 74 | 100 | –
Cc1c(CN2CCOCC2)nnc2sc(C(=O)NCc3ccc(S(=O)(=O)C(F)(F)F)cc3)c(N)c12 [Example B324] | 72 | 460 | –
